Converted amounts (≈) assume the structure as drawn.
Assays:
nAChR α3/β4 = nAChR α3/β4 (Homo sapiens, UniProt P30926+P32297); assay: nAChR α3/β4 channel agonist assay (FLIPR); format: cell-based; conditions: test conc 1 μM; 100% = 30 μM Ach, 0% = HBPS
Method: (§1) Briefly, cells were incubated with […] dye for 30 min at 37° C.

nAChR α4/β2 = target: T1, nAChR α4/β2 (Homo sapiens, UniProt P17787+P43681); assay: nAChR α4/β2 channel agonist assay (FLIPR); format: cell-based; conditions: test conc 0.3 μM; 100% = 30 μM Ach, 0% = HBPS
T1 construct: host or cells: HEK293 cells, transient
Method: as §1

nAChR α7 [1] = target: T2, nAChR α7 (Homo sapiens, UniProt P36544); assay: nAChR α7 channel agonist assay (FLIPR); format: cell-based; conditions: in presence of PNU-120596, 100% = 30 μM Ach+10 μM PNU-120596, 0% = HBPS
T2 construct: host or cells: CHO cells coexpressing RIC-3
Method: as §1
Therefore, the assay of agonist activity for either Ach or for the test articles was conducted in the presence of the positive allosteric modulator.

nAChR α7 [2] = target: T2, nAChR α7; assay: nAChR α7 channel positive allosteric modulator assay (FLIPR); format: cell-based; conditions: with 30 μM Ach, 100% = 30 μM Ach+10 μM PNU-120596, 0% = 30 μM Ach
Method: as §1

nAChR α7 [3] = target: T2, nAChR α7; assay: nAChR α7 channel antagonist assay (FLIPR); format: cell-based; conditions: with 300 μM Ach+10 μM PNU-120596, control antagonist 10 μM MLA
Method: as §1

IL-1β = assay: LPS-induced IL-1β release in whole human blood; format: cell-based; conditions: whole human blood + LPS; 16 hours (Example 13)
Method: Whole human blood was treated with LPS to stimulate inflammatory responses. […] The inflammatory molecule IL-1β was measured after 16 hours.

NFκB = NFκB luciferase assay (inhibition of TNFα-induced NFκB activity); format: cell-based, Human; conditions: Homo sapiens; 20 ng/ml TNFα; HEK293 NFκB luciferase
Method: The smokeless tobacco used in these experiments was plain long-leaf Copenhagen tobacco purchased from a local vendor. Crude extract was extracted with methanol and water and clarified by centrifugation and filtration. The alkaloid extract was prepared from sodium hydroxide and methanol extraction, organic phase separation and purification. All treatment samples were prepared as a function of weight (μg/ml), and all samples were diluted in DMSO.
Human […] kidney cells (HEK293) transfected with an NFκB luciferase reporter were challenged with TNFα for three hours, then samples were applied to the challenged cells.
The effect of S-(−)-anatabine on TNFα-induced NFκB activity in vitro was determined as described in Example 1.

[4] = Treatment of a patient with Hashimoto's thyroiditis; format: in vivo, human; conditions: one patient
Description: This example illustrates administering anatabine for treating thyroiditis. A patient had been afflicted with Hashimoto's thyroiditis for approximately 5 years. The patient's condition had advanced to a state where the treating physician recommended a thyroid lobectomy.

[5] = Plasma pharmacokinetics after oral multi-dose anatabine polacrilex; format: in vivo, Sprague-Dawley rats; conditions: for t1/2, terminal / AUC0→∞: rat; for t1/2, terminal: after the final dose; for AUC0→∞: males and females combined
Method: This study consisted of two groups of 8 animals each, 4 males and 4 females.
The vehicle was sterile phosphate buffered saline (PBS) (Amresco). […] Two formulations were prepared; one for each of the two treatment groups. The test compound was formulated for each treatment group just prior to the first dose administration and constantly stirred until dosing was completed (Table 37). Four aliquots of each dose level formulation were collected and stored at −80° C.
The animals were weighed prior to dosing and received three doses p.o. of test compound at a volume of 5 mL/kg. Blood was collected via the venus plexus (retro-orbital) into tubes containing (K2) EDTA. No more than 0.5 mL was collected per time point.
Sample preparation. Plasma samples were treated with three volumes of methanol containing internal standard at 1 μM (R,S)-Antabine-2,4,5,6-d4), incubated 10 min at 4° C., and centrifuged. The amount of the test agent in the supernatant was determined by LC/MS/MS.
Analysis. Samples were analyzed by LC/MS/MS using an Agilent 6410 mass spectrometer coupled with an Agilent 1200 high pressure liquid chromatography (HPLC) and a CTC PAL chilled autosampler, all controlled by MassHunter software (Agilent). After separation on a Hydrophilic interaction liquid chromatography (HILIC) HPLC column (Sepax) using an acetonitrile-ammonium acetate/acetic acid gradient system, peaks were analyzed by mass spectrometry (MS) using ESI ionization in multiple reaction monitoring (MRM) mode. MassHunter software was used to calculate the concentration of the test compounds in samples from the peak area using the appropriate calibration curves.
Descriptive statistics were calculated for all pharmacokinetic parameters. Elimination half-lives (t1/2) were calculated by linear regression of logarithmically transformed plasma concentration data for each period between doses and following the final dose.
Total areas under the plasma concentration curves (AUC) and under the first moment curves (AUMC) were calculated using linear trapezoidal summation across all concentration time points as well as for intervals between each dose administration and following the final dose. […] Mean absorption times (MAT) were calculated according to the following relation: […]

[6] = Physical signs after oral multi-dose administration (Example 5); format: in vivo, Sprague-Dawley rats; conditions: rat; oral gavage 0.6 or 6.0 mg/kg BW in three divided doses
Description: The physical signs of each animal were monitored following administration of the test compound.

T2 sequence (P36544 23-502): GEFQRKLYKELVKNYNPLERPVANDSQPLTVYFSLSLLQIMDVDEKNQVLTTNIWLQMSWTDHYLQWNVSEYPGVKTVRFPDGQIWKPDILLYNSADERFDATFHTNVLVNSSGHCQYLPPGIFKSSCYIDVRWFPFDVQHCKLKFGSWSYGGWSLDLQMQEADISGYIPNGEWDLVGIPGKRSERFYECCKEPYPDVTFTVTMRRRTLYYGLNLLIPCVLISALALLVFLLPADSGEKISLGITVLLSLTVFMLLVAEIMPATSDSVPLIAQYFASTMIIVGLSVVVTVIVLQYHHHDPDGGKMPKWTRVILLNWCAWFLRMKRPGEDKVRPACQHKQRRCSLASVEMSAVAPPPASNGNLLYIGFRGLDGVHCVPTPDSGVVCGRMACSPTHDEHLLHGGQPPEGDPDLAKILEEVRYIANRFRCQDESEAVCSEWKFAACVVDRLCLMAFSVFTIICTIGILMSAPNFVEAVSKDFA
Chain of nAChR α3/β4 (P32297 32-505): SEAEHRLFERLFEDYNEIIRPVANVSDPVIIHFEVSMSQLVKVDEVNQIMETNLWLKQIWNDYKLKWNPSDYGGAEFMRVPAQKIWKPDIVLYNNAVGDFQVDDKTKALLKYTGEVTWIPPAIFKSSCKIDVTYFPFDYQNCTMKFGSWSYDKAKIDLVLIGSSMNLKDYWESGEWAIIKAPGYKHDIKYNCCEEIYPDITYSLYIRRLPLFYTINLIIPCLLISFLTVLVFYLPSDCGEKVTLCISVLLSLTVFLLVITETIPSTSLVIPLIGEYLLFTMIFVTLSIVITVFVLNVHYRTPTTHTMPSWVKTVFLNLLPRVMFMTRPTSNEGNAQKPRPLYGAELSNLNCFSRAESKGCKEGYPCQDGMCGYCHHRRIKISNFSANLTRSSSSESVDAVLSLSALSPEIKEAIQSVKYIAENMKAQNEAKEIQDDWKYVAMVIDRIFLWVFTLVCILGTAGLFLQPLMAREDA
Chain of nAChR α3/β4 (P30926 22-498): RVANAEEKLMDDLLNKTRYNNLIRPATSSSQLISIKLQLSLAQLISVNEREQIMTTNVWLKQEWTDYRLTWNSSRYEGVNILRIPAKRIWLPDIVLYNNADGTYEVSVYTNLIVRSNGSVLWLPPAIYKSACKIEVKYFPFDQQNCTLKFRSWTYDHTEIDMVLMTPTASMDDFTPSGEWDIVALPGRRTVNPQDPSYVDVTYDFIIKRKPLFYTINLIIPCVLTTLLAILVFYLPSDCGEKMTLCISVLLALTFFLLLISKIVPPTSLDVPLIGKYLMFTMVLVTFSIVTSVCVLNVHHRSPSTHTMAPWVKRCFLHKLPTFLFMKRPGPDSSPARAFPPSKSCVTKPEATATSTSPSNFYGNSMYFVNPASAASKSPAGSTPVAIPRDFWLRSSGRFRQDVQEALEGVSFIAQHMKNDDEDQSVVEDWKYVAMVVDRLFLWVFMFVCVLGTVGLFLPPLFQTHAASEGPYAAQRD
T1 sequence (P43681 29-627): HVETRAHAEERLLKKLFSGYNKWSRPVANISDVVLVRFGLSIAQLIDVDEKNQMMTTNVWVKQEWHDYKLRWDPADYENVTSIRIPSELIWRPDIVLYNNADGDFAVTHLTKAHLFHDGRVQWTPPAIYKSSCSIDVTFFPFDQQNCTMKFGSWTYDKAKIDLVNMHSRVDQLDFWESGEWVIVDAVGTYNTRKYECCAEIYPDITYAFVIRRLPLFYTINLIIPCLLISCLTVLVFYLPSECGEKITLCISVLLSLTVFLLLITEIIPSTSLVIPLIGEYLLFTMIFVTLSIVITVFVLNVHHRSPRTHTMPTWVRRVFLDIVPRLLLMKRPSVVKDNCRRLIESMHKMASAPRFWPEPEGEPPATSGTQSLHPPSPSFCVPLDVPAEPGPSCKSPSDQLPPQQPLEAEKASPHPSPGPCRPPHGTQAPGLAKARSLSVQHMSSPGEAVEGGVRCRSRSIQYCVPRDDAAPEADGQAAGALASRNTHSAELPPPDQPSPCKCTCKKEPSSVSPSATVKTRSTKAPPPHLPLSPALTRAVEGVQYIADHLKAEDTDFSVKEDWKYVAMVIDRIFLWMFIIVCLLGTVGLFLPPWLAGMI
T1 sequence (P17787 26-502): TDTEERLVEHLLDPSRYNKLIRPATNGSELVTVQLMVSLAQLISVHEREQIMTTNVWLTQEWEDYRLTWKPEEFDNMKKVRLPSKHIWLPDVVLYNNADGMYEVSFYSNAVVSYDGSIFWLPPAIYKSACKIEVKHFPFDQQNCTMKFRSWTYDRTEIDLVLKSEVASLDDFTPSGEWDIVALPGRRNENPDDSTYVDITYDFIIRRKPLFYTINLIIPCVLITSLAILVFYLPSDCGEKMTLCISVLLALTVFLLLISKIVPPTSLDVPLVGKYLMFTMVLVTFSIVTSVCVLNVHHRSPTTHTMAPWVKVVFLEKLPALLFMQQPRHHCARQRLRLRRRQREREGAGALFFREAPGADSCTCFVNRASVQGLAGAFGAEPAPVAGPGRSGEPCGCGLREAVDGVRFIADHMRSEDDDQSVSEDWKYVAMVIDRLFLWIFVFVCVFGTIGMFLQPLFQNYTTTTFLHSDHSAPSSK

Q: With `C1=CCC(c2cccnc2)NC1` (racemic) [Anatabine (racemate)] as the compound, how does the “Normalized % Activation” value (nAChR α3/β4) read?
A: −0.01%

Q: What about the “Normalized % Activation” value (nAChR α4/β2) of the same compound?
A: 0.28%

Q: What about the “Normalized % Activation” value (nAChR α7 [1]; test conc 1 μm) of the same compound?
A: 0.34%

Q: What about the “Normalized % Activation” value (nAChR α7 [1]; test conc 3 μm) of the same compound?
A: 0.78%

Q: What about the “Normalized % Potentiation” value (nAChR α7 [2]; test conc 0.3 μm) of the same compound?
A: −0.94%

Q: What about the “Normalized % Potentiation” value (nAChR α7 [2]; test conc 3 μm) of the same compound?
A: −0.82%

Q: And the “Normalized % Potentiation” value (nAChR α7 [2]; test conc 10 μm)?
A: −0.51%

Q: What about the “Normalized % Potentiation” value (nAChR α7 [2]; test conc 30 μm) of the same compound?
A: −0.57%

Q: What about the “Normalized % Potentiation” value (nAChR α7 [2]; test conc 100 μm) of the same compound?
A: −0.64%

Q: And the “Normalized % Potentiation” value (nAChR α7 [2]; test conc 300 μm)?
A: −0.74%

Q: And the “Normalized % Inhibition” value (nAChR α7 [3]; test conc 0.3 μm)?
A: 22.38%

Q: And the “Normalized % Inhibition” value (nAChR α7 [3]; test conc 1 μm)?
A: 22.23%

Q: What about the “Normalized % Inhibition” value (nAChR α7 [3]; test conc 3 μm) of the same compound?
A: 45.19%

Q: And the “Normalized % Inhibition” value (nAChR α7 [3]; test conc 10 μm)?
A: 33.42%

Q: And the “Normalized % Inhibition” value (nAChR α7 [3]; test conc 30 μm)?
A: 22.88%

Q: And the “Normalized % Inhibition” value (nAChR α7 [3]; test conc 100 μm)?
A: 21.99%

Q: What about the “Normalized % Inhibition” value (nAChR α7 [3]; test conc 300 μm) of the same compound?
A: 7.51%

Q: And the “Normalized % Inhibition” value (nAChR α7 [3]; test conc 1000 μm)?
A: 10.84%

Q: For `CC(C)c1c(C(=O)Nc2ccccc2)c(-c2ccccc2)c(-c2ccc(F)cc2)n1CC[C@@H](O)C[C@@H](O)CC(=O)[O-].CC(C)c1c(C(=O)Nc2ccccc2)c(-c2ccccc2)c(-c2ccc(F)cc2)n1CC[C@@H](O)C[C@@H](O)CC(=O)[O-].[Ca+2]` [LIPITOR®, reference compound], which “accumulation of IL-1β” value (IL-1β) is on record?
A: had no effect at the dose shown

Q: For `C1=CC[C@@H](c2cccnc2)NC1` [S-(−)-anatabine], which IC50 (NFκB) is on record?
A: ~330 µg/mL (≈ 2060 µM)

Q: For anatabine citrate, which “inflammation of the thyroid” value ([4]; about 600 μg tablets 20 times daily, 30 days) is on record?
A: reduced to normal levels

Q: And the “voice distortion associated with thyroiditis” value ([4]; after an additional 30 days)?
A: no longer present

Q: Which “Cp, min(2)” value ([5]; females, 6.0 mg/kg BW group) does the source give for anatabine polacrilex here?
A: 180 ± 31 ng/mL

Q: And the “Cp, min, first minimum” value ([5]; females, 6.0 mg/kg BW group)?
A: 51.5 ± 26.0 ng/mL

Q: And the “t1/2, terminal” value ([5]; 0.6 mg/kg BW group)?
A: 1.79 ± 0.64 h

Q: And the “AUC0→∞” value ([5]; 0.6 mg/kg BW p.o. in three divided doses)?
A: 285 ± 77 ng·h/mL

Q: And the “t1/2, terminal” value ([5]; 6.0 mg/kg BW group)?
A: 4.53 ± 1.77 h

Q: What about the “AUC0→∞” value ([5]; 6.0 mg/kg BW p.o. in three divided doses) of the same compound?
A: 3496 ± 559 ng·h/mL

Q: And the adverse signs [6]?
A: no adverse signs were observed

— US20160030407A1, “Method of Treating Inflammatory Lung Disease” (priority 2010, published 2016)
